Reference: ChEMBL document CHEMBL1795217, “New vasorelaxant indole alkaloids, villocarines A-D from Uncaria villosa” (Bioorg Med Chem, 2011)
Activity calls are given as the source filed them.

Legend:
Aorta [1] = experiment: Vasorelaxant activity in Wistar rat thoracic aortic rings with endothelium assessed as inhibition of phenylephrine-induced contraction at 30 uM measured 10 to 30 mins within compound dosing; format: functional, tissue-based
Aorta [2] = experiment: Vasorelaxant activity in endothelium denuded Wistar rat thoracic aortic rings assessed as inhibition of phenylephrine-induced contraction at 30 uM; format: functional, tissue-based
Aorta [3] = experiment: Vasorelaxant activity in endothelium denuded Wistar rat thoracic aortic rings assessed as inhibition of phenylephrine-induced contraction at 30 uM in presence of Ca2+-free medium pre-incubated with 1 uM phenylephrine abd 1 uM nicardipine
Aorta [4] = experiment: Vasorelaxant activity in endothelium denuded Wistar rat thoracic aortic rings assessed as inhibition of calcium-induced contraction at 30 uM in presence of Ca2+-free K+-rich medium; format: functional, tissue-based

Measured: Activity

C/C=C1/CN2CCc3c([nH]c4ccccc34)[C@H]2C[C@@H]1/C(=C\OC)C(=O)OC
active: all assays above
